{"source": "paper PMC7694175", "about": "“Kunitz-Type Peptides from the Sea Anemone Heteractis crispa Demonstrate Potassium Channel Blocking and Anti-Inflammatory Activities” (Biomedicines, 2020)", "molecules": {"B1": {"name": "SHTXIII: SHTXIII (B1B5I8) from S. haddoni (protein, UniProt B1B5I8 20-81, looked up)", "KappaPI-stichotoxin-Shd2a": "TEEMPALCHLQPDVPKCRGYFPRYYYNPEVGKCEQFIYGGCGGNKNNFVSFEACRATCIIPL"}, "B2": {"name": "bikunin: a human Kunitz-type peptide (protein, UniProt P02760 206-352, looked up)", "Inter-alpha-trypsin inhibitor …": "AVLPQEEEGSGGGQLVTEVTKKEDSCQLGYSAGPCMGMTSRYFYNGTSMACETFQYGGCMGNGNNFVTEKECLQTCRTVAACNLPIVRGPCRAFIQLWAFDAVKGKCVLFPYGGCQGNGNKFYSEKECREYCGVPGDGDEELLRFSN", "modifications": "Inter-alpha-trypsin inhibitor light chain", "notes": "a human Kunitz-type peptide"}}, "key": {"[1]": {"test_system": "TNF-α", "assay": "TNF-α ELISA in blood of mice with carrageenan-induced inflammation", "assay_type": "in vivo, ICR mice", "details": "mouse blood 24 h after carrageenan, indomethacin 5 mg/kg oral", "procedure": "Tests were performed on male ICR mice, with six individuals in each group. A peptide sample was dissolved in sterile saline and administered intravenously at doses of 0.1 and 1.0 mg/kg. Control animals received an equivalent volume of sterile saline. Indomethacin at a dose of 5 mg/kg was used as a positive control and administered orally to animals. Each mouse received 20 μL of a 1% solution of carrageenan in the hind paw pad after 30 min in the case of saline and tested peptide and after 60 min in the case of indomethacin. Then, the resulting edema was measured at several time points (1, 3, 5, and 24 h) using a plethysmometer (Ugo Basile, Gemonio (VA), Italy).\nAnimals were terminally anaesthetized with sodium pentobarbital ([…] i.p., Euthatal, Merial Animal Health, Essex, UK) 24 h after carrageenan injection. Then the thoracic cavity was opened and blood was collected in tubes with the ethylenediaminetetraacetic acid (EDTA) directly from the right atrium of the heart. The whole blood was centrifuged at 2.5 × 10^3× g for 10 min to remove cells; the blood serum was then aliquoted and stored at −20 °C. These samples were analyzed for TNF-α in the enzyme-linked immunosorbent assay (ELISA) using a diagnostic kit according to the manufacturer’s protocol (CUSABIO BIOTECH Co., Ltd., Houston, TX, USA)."}, "[2]": {"test_system": "trypsin", "details": "cited from earlier work"}, "[3]": {"test_system": "Kv1.3", "parameters": "key to IC50 Kv1.3 (class symbol): -: no or weak activity", "details": "cited from earlier work"}, "[4]": {"test_system": "Kv1.6", "parameters": "key to IC50 Kv1.6 (class symbol): -: no or weak activity", "details": "cited from earlier work", "from_the_text": "Table 1 Kunitz-type voltage-gated potassium channel toxins from animal venoms. | column: IC50 (nM) / Kv1.6"}, "[5]": {"test_system": "Shaker IR", "parameters": "key to IC50 Shaker IR (class symbol): -: no or weak activity", "details": "cited from earlier work"}, "[6]": {"test_system": "Kv1.1", "details": "cited from earlier work", "from_the_text": "(§1) Kalicludines block Kv1.2 in µM concentratio ..."}, "[7]": {"test_system": "Kv1.2", "parameters": "key to IC50 Kv1.2 (class symbol): -: no or weak activity", "details": "cited from earlier work", "from_the_text": "Table 1 Kunitz-type voltage-gated potassium channel toxins from animal venoms. | column: IC50 (nM) / Kv1.2"}, "[8]": {"test_system": "crabs", "details": "ref [18]; cited from earlier work"}, "[9]": {"test_system": "Kv1.1, Kv1.2, and Kv1.6 channels in rat synaptosomal membranes", "details": "ref [18], cited from earlier work; for IC50: 125I α-DTX dendrotoxin binding to synaptosomal membranes", "from_the_text": "as §1"}, "[10]": {"test_system": "macrophages treated with LPS", "details": "ref [68]; cited from earlier work", "from_the_text": "Kv1.3 channels have gained a prominent role for their possibility to control neuroinflammatory and autoimmune diseases. Inflammation involves several processes including the activation of inflammatory cells, the secretion of pro-inflammatory cytokines and the release of various inflammatory mediators, leading to symptoms of inflammation such as redness, swelling, fever and pain [67]."}}, "note": "Where two headings read alike, the source gives them in different places. Bridge positions count the residues as written; N and C are the ends. Ends that are not written are not given here."}
{"molecule": "COc1ccc2c(c1)c(CC(=O)O)c(C)n2C(=O)c1ccc(Cl)cc1", "note": "[indomethacin]", "values": [{"measurement": "effect on TNF-α synthesis", "setting": "[1]", "value": "reduced the synthesis of TNF-α"}]}
{"molecule": "APEKTx1: APEKTx1 (P61541) from the sea anemone A. elegantissima (GTTCYCGKTIGIYWFGTKTCPSNRGYTGSCGYFLGICCYPVD; UniProt P61541 1-42, looked up)", "values": [{"measurement": "trypsin inhibition (in words)", "setting": "[2]; ref [17]", "value": "effectively inhibiting trypsin"}, {"measurement": "IC50 Kv1.3 (class symbol)", "setting": "[3]; ref [17]", "value": "-"}, {"measurement": "IC50 Kv1.6 (class symbol)", "setting": "[4]; ref [17]", "value": "-"}, {"measurement": "IC50 Shaker IR (class symbol)", "setting": "[5]; ref [17]", "value": "-"}, {"measurement": "IC50", "setting": "[6]; ref [17]", "value": 0.9, "unit": "nM"}, {"measurement": "Kv1.1 block (in words)", "setting": "[6]; ref [17]", "value": "selectively blocks Kv1.1 channels"}, {"measurement": "IC50 Kv1.2 (class symbol)", "setting": "[7]; ref [17]", "value": "-"}]}
{"molecule": "AsKC1: AsKC1 (Q9TWG0) from A. sulcata (INKDCLLPMDVGRCRASHPRYYYNSSSKRCEKFIYGGCRGNANNFHTLEECEKVCGVR; disulfide 14-38, 30-51, 5-55 (inferred); UniProt Q9TWG0 1-58, looked up)", "values": [{"measurement": "IC50", "setting": "[7]; ref [16]", "value": 2800, "unit": "nM"}]}
{"molecule": "AsKC2: AsKC2 (Q9TWF9) from A. sulcata (INKDCLLPMDVGRCRARHPRYYYNSSSRRCEKFIYGGCRGNANNFITKKECEKVCGVR; disulfide 14-38, 30-51, 5-55 (inferred); UniProt Q9TWF9 1-58, looked up)", "values": [{"measurement": "IC50", "setting": "[7]; ref [16]", "value": 1100, "unit": "nM"}]}
{"molecule": "AsKC3: AsKC3 (Q9TWF8) from A. sulcata (INGDCELPKVVGRCRARFPRYYYNLSSRRCEKFIYGGCGGNANNFHTLEECEKVCGVRS; disulfide 14-38, 30-51, 5-55 (inferred); UniProt Q9TWF8 1-59, looked up)", "values": [{"measurement": "IC50", "setting": "[7]; ref [16]", "value": 1300, "unit": "nM"}]}
{"molecule": "DTX-I: DTX1 (P00979) from snake Dendroaspis polylepis (QPLRKLCILHRNPGRCYQKIPAFYYNQKKKQCEGFTWSGCGGNSNRFKTIEECRRTCIRK; UniProt P00979 1-60, looked up)", "values": [{"measurement": "IC50", "setting": "[6]; ref [48]", "value": 3.1, "unit": "nM"}, {"measurement": "IC50", "setting": "[7]; ref [48]", "value": 0.13, "unit": "nM"}]}
{"molecule": "DTX-δ: DTX-δ (P00982) from Dendroaspis angusticeps (AAKYCKLPVRYGPCKKKIPSFYYKWKAKQCLPFDYSGCGGNANRFKTIEECRRTCVG; UniProt P00982 1-57, looked up)", "values": [{"measurement": "IC50", "setting": "[5]; ref [49]", "value": 1000, "unit": "nM"}, {"measurement": "IC50", "setting": "[6]; ref [49]", "value": 0.01, "unit": "nM"}]}
{"molecule": "LmKTT-1a: LmKTT-1a (P0DJ46) from scorpion Lychas mucronatus", "values": [{"measurement": "IC50", "setting": "[3]; ref [50]", "value": "1580 ± 73", "unit": "nM"}, {"measurement": "IC50", "setting": "[6]; ref [50]", "value": "> 1000", "unit": "nM"}, {"measurement": "IC50", "setting": "[7]; ref [50]", "value": "> 1000", "unit": "nM"}]}
{"molecule": "ShPI-1: ShPI-1 (P31713) from S. helianthus (SICSEPKKVGRCKGYFPRFYFDSETGKCTPFIYGGCGGNGNNFETLHQCRAICRA; UniProt P31713 1-55, looked up)", "values": [{"measurement": "IC50 Kv1.3 (class symbol)", "setting": "[3]; ref [19]", "value": "-"}, {"measurement": "IC50", "setting": "[4]; ref [19]", "value": "9 ± 2", "unit": "nM"}, {"measurement": "IC50 Shaker IR (class symbol)", "setting": "[5]; ref [19]", "value": "-"}, {"measurement": "IC50", "setting": "[6]; ref [19]", "value": "117 ± 15", "unit": "nM"}, {"measurement": "IC50", "setting": "[7]; ref [19]", "value": "9 ± 2", "unit": "nM"}]}
{"molecule": "B1", "values": [{"measurement": "trypsin inhibition (in words)", "setting": "[2]; ref [18]", "value": "inhibited trypsin"}, {"measurement": "paralysis of crabs (in words)", "setting": "[8]", "value": "paralyzes crabs"}, {"measurement": "IC50", "setting": "[9]; column Kv1.1, read-out: IC50 Kv1.1 (125I α-DTX binding)", "value": 270, "unit": "nM"}, {"measurement": "IC50", "setting": "[9]; column Kv1.2, read-out: IC50 Kv1.2 (125I α-DTX binding)", "value": 270, "unit": "nM"}, {"measurement": "IC50", "setting": "[9]; column Kv1.6, read-out: IC50 Kv1.6 (125I α-DTX binding)", "value": 270, "unit": "nM"}, {"measurement": "competition with the binding of α-DTX (in words)", "setting": "[9]; rat synaptosomal membranes, at the level of Kv1.1, Kv1.2, and Kv1.6", "value": "competed with the binding of α-DTX"}]}
{"molecule": "B2", "values": [{"measurement": "effect on production of mediators", "setting": "[10]", "value": "inhibits the production of thromboxane B2, TNF-α, and IL-8"}]}
